Source: US6784167B2, “17-beta-hydroxysteroid dehydrogenase-II inhibitors” (Bayer Pharmaceuticals Corporation, priority 2000, dated 2004)
Where two headings read alike, the source gives them in different places.

How the values were obtained:
17-Beta HSD II Enzyme = molecular target: T1, 17-Beta HSD II Enzyme (Homo sapiens, UniProt P37059); assay: Primary assay: inhibition of 17-Beta HSD II enzyme (estradiol/NAD, PMS:MTS colorimetric readout at 490 nm); type: biochemical; details: Table 7, baculovirus-expressed recombinant HSD II, estradiol substrate
T1 construct: made in house; host or cells: insect cells (baculovirus)
T1 sequence (P37059 1-387): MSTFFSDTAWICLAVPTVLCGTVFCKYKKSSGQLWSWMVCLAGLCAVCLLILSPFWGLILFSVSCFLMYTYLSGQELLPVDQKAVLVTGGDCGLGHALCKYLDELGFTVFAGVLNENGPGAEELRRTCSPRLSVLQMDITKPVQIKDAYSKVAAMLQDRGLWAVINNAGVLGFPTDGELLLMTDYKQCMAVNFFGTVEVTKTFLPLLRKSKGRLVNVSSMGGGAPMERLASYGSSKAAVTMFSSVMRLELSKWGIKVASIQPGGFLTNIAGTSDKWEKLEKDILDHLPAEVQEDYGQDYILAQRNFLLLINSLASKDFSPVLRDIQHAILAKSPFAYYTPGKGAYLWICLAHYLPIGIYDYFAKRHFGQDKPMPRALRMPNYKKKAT
Protocol: HSD II protein purification: The method for purification of baculovirus-expressed HSD II was standardized as follows. The insect cell pellet containing recombinant HSD II was lysed in 2.5 volumes of lysis buffer (40 mM Tris, pH 7.5, 1 mM EDTA, 2 mM DTT, 10 uM NAD) containing 500 uM AEBSF, 10 ug/ml aprotinin, 1 uM pepstatin A, and 100 uM leupeptin. The pellet was nutated for 30 min in this buffer. Subsequently, the pellet was homogenized with 15 strokes using a glass and teflon potter. The volume was doubled with a 2× sucrose/NaCl solution (500 mM sucrose, 300 mM NaCl in lysis buffer). After centrifugation at 10,000×g for 30 min, the supernatant was decanted and stored at −20° C. The pellet was resuspended in 2.5 volumes of lysis buffer containing 250 mM sucrose and 150 mM NaCl. Homogenization was repeated (15 strokes) and the suspension was centrifuged again and the decanted supernatant was stored at −20° C. The pellet was resuspended with 2 times the original pellet volume in lysis buffer containing 150 mM NaCl and 1% Triton X-100. The suspension was nutated for 20 min and then homogenized with 5 strokes. Subsequently, the suspension was centrifuged at 30,000×g for 1 h and supernatant was decanted and poured into a chromatographic column. Sephadex G-25 (fine) was added in small amounts, allowing approximately 15 min after each addition for complete swelling. Sephadex addition was continued until all liquid was absorbed. The protein was eluted with 1 void volume of lysis buffer and eluate monitored at 280 nm optical density. The chromatographic procedure was repeated and an equal volume of glycerol was added to the final eluate.
Primary assay: After titration, the HSD II prep, generated with the standard protocol, was diluted to the appropriate concentration (generally 1/15 dilution). 55 μl of assay buffer (50 mM Hepes, pH 8.0) was added to all wells of a 96 well plate. 5 μl of 5% DMSO were added to wells A1-C1, A2-C2, F1-H1, and F2-H2. A 10 μl aliquot of a 10 mM solution in DMSO of each compound was diluted in 190 μl of assay buffer. The plate with these compound dilutions was then mixed for 15 min on a shaker and a 5 μl aliquot from each well was added to the […]. This was followed by 10 μl of HSD II enzyme ( 1/15 dilution)/estradiol mix in assay buffer containing 1% Triton X-100. The estradiol […] from a 20 mM estradiol DMSO stock solution, which was diluted 1/20 (50 μl/ml) in 50 mM Hepes buffer containing 1% Triton X-100. All wells, except F1-H1 and F2-H2, also received 10 μl of 25 mg/ml NAD (SIGMA) in 100 mM Hepes, pH 9. The blank wells F1-H1 and F2-H2 received 10 μl of NAD buffer. 20 μl of PMS:MTS solution (100 μl PMS into 1800 μl MTS, Promega) was added to all wells. The plate was covered with aluminum foil and incubated at room temperature for 1.5 h. The plate was analyzed at 490 nm on a Hewlett Pachard 8453 spectrophotometer and results were calculated.

[1] = read-out: IC50 values ≧2 μM and <10 μM

Structure (SMILES): CN1C(=O)C[C@H](c2cccc(F)c2)[C@@H]1[C@H](O)c1ccc(-c2ccc(F)cc2)s1 (racemic) [Example 85]
- IC50 (17-Beta HSD II Enzyme): < 500 nM
- melting point: 195 °C

Structure (SMILES): CN1C(=O)C[C@H](c2ccccc2F)[C@@H]1[C@H](O)c1ccc(S(=O)(=O)c2ccccc2)s1 (racemic) [Example 89]
- IC50 (17-Beta HSD II Enzyme): < 500 nM
- melting point: 232 °C

Structure (SMILES): COc1ccccc1[C@H]1CC(=O)N(C)[C@H]1[C@H](O)c1ccc(S(=O)(=O)c2ccccc2)s1 (racemic) [Example 91]
- IC50 (17-Beta HSD II Enzyme): < 500 nM
- melting point: 160 °C

Structure (SMILES): CN1C(=O)C[C@H](c2ccccc2)[C@@H]1[C@H](O)c1cccc2ccccc12 (racemic) [Example 94]
- IC50 (17-Beta HSD II Enzyme; [1]): 2000 to 10000 nM
- melting point: 255 to 256 °C

Structure (SMILES): CN1C(=O)C[C@H](c2ccccc2)[C@@H]1[C@H](O)c1cccc(-c2ccccc2)c1 (racemic) [Example 98]
- IC50 (17-Beta HSD II Enzyme): < 500 nM
- melting point: 173 to 176 °C

Structure (SMILES): CN1C(=O)C[C@H](c2ccccc2)[C@@H]1[C@H](O)c1cccc(-c2ccc(F)cc2)c1 (racemic) [Example 104]
- IC50 (17-Beta HSD II Enzyme; [1]): 2000 to 10000 nM
- melting point: 210 °C

Structure (SMILES): CN1C(=O)C[C@H](c2ccccc2)[C@@H]1[C@H](O)c1cccc(-c2cccc([N+](=O)[O-])c2)c1 (racemic) [Example 106]
- IC50 (17-Beta HSD II Enzyme; [1]): 2000 to 10000 nM
- melting point: 183 °C

Structure (SMILES): CSc1ccc(-c2ccc([C@@H](O)[C@H]3[C@@H](c4ccccc4)CC(=O)N3C)o2)cc1 (racemic) [Example 116]
- IC50 (17-Beta HSD II Enzyme; [1]): 2000 to 10000 nM
- melting point: 183 °C

Structure (SMILES): CN1C(=O)C[C@H](c2ccccc2)[C@@H]1[C@H](O)c1ccc(-c2ccc(C(=O)O)cc2)o1 (racemic) [Example 118]
- IC50 (17-Beta HSD II Enzyme; [1]): 2000 to 10000 nM
- melting point: 194 °C

Structure (SMILES): CC(=O)Nc1cccc(-c2ccc([C@@H](O)[C@H]3[C@@H](c4ccccc4)CC(=O)N3C)o2)c1 (racemic) [Example 121]
- IC50 (17-Beta HSD II Enzyme; [1]): 2000 to 10000 nM
- melting point: 193 °C

Structure (SMILES): CN1C(=O)C[C@H](c2ccccc2)[C@@H]1[C@H](O)C#Cc1ccccc1Cl (racemic) [Example 126]
- IC50 (17-Beta HSD II Enzyme): < 500 nM
- melting point: 139 to 140 °C

Structure (SMILES): CN1C(=O)C[C@H](c2ccccc2)[C@@H]1[C@H](O)C#CCN1CCS(=O)(=O)CC1 (racemic) [Example 130]
- IC50 (17-Beta HSD II Enzyme; [1]): 2000 to 10000 nM
- melting point: 217 to 218 °C

Structure (SMILES): Cc1ccc(C)n1-c1cccc(C#C[C@@H](O)[C@H]2[C@@H](c3ccccc3)CC(=O)N2C)c1 (racemic) [Example 131]
- IC50 (17-Beta HSD II Enzyme): < 500 nM
- melting point: 175 to 176 °C

Structure (SMILES): CN1C(=O)CC(c2ccccc2)C1C(O)C#Cc1cccc(N)c1 (racemic) [Example 133]
- IC50 (17-Beta HSD II Enzyme): < 500 nM
- melting point: 205 to 207 °C

Structure (SMILES): CN1C(=O)C[C@H](c2ccccc2)[C@@H]1[C@H](O)C#Cc1ccc(-c2ccccc2)cc1 (racemic) [Example 136]
- IC50 (17-Beta HSD II Enzyme; [1]): 2000 to 10000 nM
- melting point: 217 to 218 °C

Structure (SMILES): CN1C(=O)C[C@H](c2ccccc2)[C@@H]1[C@H](O)Cc1cccc(Cl)c1 (relative stereo) [Example 9, (±)-(4R*,5R*)-5-[(1R*)-2-(3-chlorophenyl)-1-hydroxyethyl]-1-methyl-4-phenylpyrrolidin-2-one]
- IC50 (17-Beta HSD II Enzyme; [1]): 2000 to 10000 nM
- melting point: 50 to 52 °C

Structure (SMILES): CO[C@H](c1cccs1)[C@H]1[C@@H](c2ccccc2)CC(=O)N1C (relative stereo) [Example 12, (±)-(4R*,5R*)-5-((1S*)-methoxy-2-thienylmethyl)-1-methyl-4-phenylpyrrolidin-2-one]
- IC50 (17-Beta HSD II Enzyme; [1]): 2000 to 10000 nM
- melting point: 101 to 102 °C

Structure (SMILES): CN1C(=O)C[C@H](c2ccc(N)cc2)[C@@H]1[C@H](O)c1ccc(-c2ccccc2)s1 (relative stereo) [Example 17, (±)-(4R*,5R*)-5-[(1S*)-hydroxy(5-phenyl(2-thienyl))methyl]-4-(4-aminophenyl)-1-methylpyrrolidin-2-one]
- IC50 (17-Beta HSD II Enzyme): < 500 nM
- melting point: 221 to 222 °C
